{"source": "ChEMBL document CHEMBL3638719", "about": "“Carbazole and carboline kinase inhibitors” (2014)", "target": "Tyrosine-protein kinase JAK2 (Homo sapiens, UniProt O60674)", "sequence (O60674 whole entry)": "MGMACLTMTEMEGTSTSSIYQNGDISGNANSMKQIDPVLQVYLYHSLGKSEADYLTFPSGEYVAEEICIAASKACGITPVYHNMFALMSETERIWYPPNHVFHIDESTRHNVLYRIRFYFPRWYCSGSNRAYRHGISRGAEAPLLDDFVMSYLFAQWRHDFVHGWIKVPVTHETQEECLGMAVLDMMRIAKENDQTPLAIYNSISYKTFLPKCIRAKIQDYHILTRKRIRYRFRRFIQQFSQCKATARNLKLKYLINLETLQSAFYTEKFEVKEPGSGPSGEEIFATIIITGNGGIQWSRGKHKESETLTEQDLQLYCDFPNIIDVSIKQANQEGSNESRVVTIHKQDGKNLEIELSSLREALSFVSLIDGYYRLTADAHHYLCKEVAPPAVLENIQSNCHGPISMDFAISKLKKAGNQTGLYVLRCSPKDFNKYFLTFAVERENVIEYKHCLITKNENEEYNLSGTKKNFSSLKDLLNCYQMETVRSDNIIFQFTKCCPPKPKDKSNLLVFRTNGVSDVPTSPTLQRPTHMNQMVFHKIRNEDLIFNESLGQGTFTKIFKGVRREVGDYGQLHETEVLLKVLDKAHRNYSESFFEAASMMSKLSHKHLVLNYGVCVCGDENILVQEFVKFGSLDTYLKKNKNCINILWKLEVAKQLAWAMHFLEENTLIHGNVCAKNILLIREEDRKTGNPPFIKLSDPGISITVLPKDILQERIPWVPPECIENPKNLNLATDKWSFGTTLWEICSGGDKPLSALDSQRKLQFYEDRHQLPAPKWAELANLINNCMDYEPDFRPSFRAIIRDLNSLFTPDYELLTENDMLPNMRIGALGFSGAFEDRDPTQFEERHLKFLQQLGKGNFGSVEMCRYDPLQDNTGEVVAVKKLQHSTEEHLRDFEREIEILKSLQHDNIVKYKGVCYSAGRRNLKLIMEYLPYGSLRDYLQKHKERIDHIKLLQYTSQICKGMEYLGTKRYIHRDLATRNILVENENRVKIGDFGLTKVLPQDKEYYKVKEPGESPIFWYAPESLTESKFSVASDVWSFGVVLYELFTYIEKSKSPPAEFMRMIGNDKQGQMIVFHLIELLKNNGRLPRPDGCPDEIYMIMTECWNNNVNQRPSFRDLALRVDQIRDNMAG", "assay": "Tyrosine Kinase Assay: The assays were performed in V-bottom 384-well plates. […] The reaction was initiated by the combination of JAK2 with substrates and test compounds. The reaction was incubated at room temperature for 60 min. and terminated by adding 45 ul of 35 mM EDTA to each sample. The reaction mixture was analyzed on the Caliper LABCHIP 3000 by electrophoretic separation of the fluorescent substrate and phosphorylated product."}
{"molecule": "COc1ccc(-c2cc(C(N)=O)c3[nH]c4cc(C(=O)N5CCCC(C)(O)C5)ccc4c3c2)cc1F", "note": "(configuration not stated)", "values": [{"measurement": "IC50", "result": 1, "unit": "nM"}]}
{"molecule": "COc1cccc(-c2cc(C(N)=O)c3[nH]c4cc(NC(=O)OC(C)(C)C)ccc4c3c2)c1", "values": [{"measurement": "IC50", "result": 160, "unit": "nM"}]}
